Experimental findings from paper PMC12715756 (ACS Chemical Neuroscience, 2025) are described below.

Structures are written as SMILES. Read-outs that look alike come from different tables or passages of the source. Bounds are passed on as bounds.

What is called Emax is the size of the effect at its maximum, as opposed to the concentration needed. Usually IC50 stands for the midpoint of a concentration-inhibition curve.

One series has as its target T1, 5-HT2C (Homo sapiens, UniProt P28335).
T1 construct: expressed in transfected cells; host or cells: HEK293T (ATCC; RRID:CVCL_0063), transient transfection
T1 sequence (P28335 33-458): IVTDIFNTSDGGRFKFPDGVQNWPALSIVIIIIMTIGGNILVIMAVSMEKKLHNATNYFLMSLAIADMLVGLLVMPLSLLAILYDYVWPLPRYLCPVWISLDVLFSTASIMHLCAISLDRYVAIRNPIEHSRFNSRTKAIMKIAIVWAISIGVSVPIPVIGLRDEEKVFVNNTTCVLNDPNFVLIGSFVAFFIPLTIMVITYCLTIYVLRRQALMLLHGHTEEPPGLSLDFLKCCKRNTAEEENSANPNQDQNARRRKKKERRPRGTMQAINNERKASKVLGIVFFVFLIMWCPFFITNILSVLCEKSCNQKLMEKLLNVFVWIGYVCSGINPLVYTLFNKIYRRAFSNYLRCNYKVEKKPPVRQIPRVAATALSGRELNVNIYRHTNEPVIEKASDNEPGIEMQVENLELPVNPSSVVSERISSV
The series is described as follows: cell-based. To be noted: for EC50: Gq dissociation BRET; for Emax: HEK-293T, read-out: Emax ± SEM, %5-HT response 5-HT2C.

Series [1] deals with T2, DAT (Homo sapiens, UniProt Q01959). To be noted: uptake inhibition; DAT/SERT ratio = 1/DAT / 1/SERT.
Series [2] deals with T2, DAT. The series is described as follows: cell-based. The conditions noted are these: read-out: Emax [95%-CI], DAT mediated [3H]MPP+ release.
Series [3] has as its target T3, SERT (Homo sapiens, UniProt P31645). As to the kind of experiment: Uptake inhibition assay, [3H]5-HT uptake in HEK293 cells. It counts as cell-based. Also on record: expressed in transfected cells.
The target of the next series is T4, 5-HT2B (Homo sapiens, UniProt P41595).
T4 construct: expressed in transfected cells; host or cells: HEK293T (ATCC; RRID:CVCL_0063), transient transfection
The series is described as follows: Gq dissociation BRET assay in HEK293T cells. Format: cell-based. To be noted: for EC50: Gq dissociation BRET, read-out: EC50 5-HT2B; for Emax: HEK-293T, read-out: Emax ± SEM, %5-HT response 5-HT2B. On the technique in general: BRET reads energy transfer from a luciferase to a nearby fluorophore.

Another series has as its target T5, 5-HT2A (Homo sapiens, UniProt P28223).
T5 construct: expressed in transfected cells; host or cells: HEK293T (ATCC; RRID:CVCL_0063), transient transfection
As to the kind of experiment: Gq dissociation BRET assay in HEK293T cells. Format: cell-based. To be noted: for Emax ± SEM, %5-HT response 5-HT2A / EC50: Gq dissociation BRET; for Emax ± SEM, %5-HT response 5-HT2A: relative to 5-HT.

For series [4], the target named is T2, DAT. The conditions noted are these: for DAT/SERT ratio (EC50): efflux assays.
In series [5] the target is T3, SERT. As to the kind of experiment: Release (superfusion) assay, SERT mediated [3H]5-HT efflux. The conditions noted are these: for Emax: read-out: Emax [95%-CI], SERT mediated [3H]5-HT efflux.
For series [6], the target named is T6, NET (Homo sapiens, UniProt P23975). The series is described as follows: Uptake inhibition assay, [3H]MPP+ uptake in HEK293 cells. It counts as cell-based. Also noted: expressed in transfected cells. To be noted: HEK293 cells, 0.02 μM [3H]MPP+; mean ± SD; read-out: IC50 ± SD, [3H]MPP+ uptake NET.
The target in series [7] is T6, NET. As to the kind of experiment: Release (superfusion) assay, NET mediated [3H]MPP+ release. The conditions noted are these: for Emax: read-out: Emax [95%-CI], NET mediated [3H]MPP+ release.
The target in series [8] is T7, human organic cation transporter 1 (OCT1) (Homo sapiens, UniProt O15245).
T7 sequence (O15245 1-554): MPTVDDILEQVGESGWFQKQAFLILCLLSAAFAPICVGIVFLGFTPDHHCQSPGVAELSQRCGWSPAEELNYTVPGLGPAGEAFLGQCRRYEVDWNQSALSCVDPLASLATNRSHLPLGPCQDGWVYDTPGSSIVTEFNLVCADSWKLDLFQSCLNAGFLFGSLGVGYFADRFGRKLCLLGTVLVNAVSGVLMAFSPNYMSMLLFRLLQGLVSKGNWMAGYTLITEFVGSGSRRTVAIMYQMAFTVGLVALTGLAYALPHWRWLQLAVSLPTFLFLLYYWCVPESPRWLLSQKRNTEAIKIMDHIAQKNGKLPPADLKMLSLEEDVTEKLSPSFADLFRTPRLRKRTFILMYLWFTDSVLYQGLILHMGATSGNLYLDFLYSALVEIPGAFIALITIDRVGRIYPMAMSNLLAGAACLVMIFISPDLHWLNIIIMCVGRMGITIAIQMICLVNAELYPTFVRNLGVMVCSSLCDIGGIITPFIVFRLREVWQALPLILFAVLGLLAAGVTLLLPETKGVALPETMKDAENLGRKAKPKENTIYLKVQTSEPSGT
The series is described as follows: Uptake inhibition assay, [3H]MPP+ uptake in HEK293 cells.

In another series the test system is male Swiss CD-1 mice. As to the kind of experiment: Open field test (thigmotaxis). Format: in vivo. The conditions noted are these: 10 mg/kg i.p., vs saline. On the procedure: Male Swiss CD-1 mice (Janvier, Le Genest, France), weighing 30–35 g and aged 6–8 weeks, were used for HLA, thigmotaxis, CPP, and core body temperature experiments. Animals were housed under temperature-controlled conditions (22 ± 1 °C) with a 12 h light/dark cycle and had free access to food and water (standard laboratory diet, Panlab SL, Barcelona, Spain). Doses for HLA, thigmotaxis, CPP, and core body temperature experiments were calculated based on the free base form of each compound. […] Doses for HTR experiments were calculated based on the respective salt forms of the compounds.
A habituation phase was performed to reduce the stress and novelty associated with handling and injection. […] On the test day, their horizontal locomotor activity (HLA) was measured. […] HLA was video monitored for 2 h, and a specific tracking software (Smart 3.0 Panlab, Barcelona, Spain) was used to measure their total traveled distance (in cm). Center Versus Periphery: The thigmotactic effects of the test compounds, widely considered as anxiety-like effects, were assessed through an OF test. […] The time spent, in seconds, in the center (8 × 8 cm) or the periphery of the arena was monitored for 2 h (Smart 3.0 Panlab, Barcelona, Spain).

T6 sequence (P23975 whole entry, the tested form may be a part): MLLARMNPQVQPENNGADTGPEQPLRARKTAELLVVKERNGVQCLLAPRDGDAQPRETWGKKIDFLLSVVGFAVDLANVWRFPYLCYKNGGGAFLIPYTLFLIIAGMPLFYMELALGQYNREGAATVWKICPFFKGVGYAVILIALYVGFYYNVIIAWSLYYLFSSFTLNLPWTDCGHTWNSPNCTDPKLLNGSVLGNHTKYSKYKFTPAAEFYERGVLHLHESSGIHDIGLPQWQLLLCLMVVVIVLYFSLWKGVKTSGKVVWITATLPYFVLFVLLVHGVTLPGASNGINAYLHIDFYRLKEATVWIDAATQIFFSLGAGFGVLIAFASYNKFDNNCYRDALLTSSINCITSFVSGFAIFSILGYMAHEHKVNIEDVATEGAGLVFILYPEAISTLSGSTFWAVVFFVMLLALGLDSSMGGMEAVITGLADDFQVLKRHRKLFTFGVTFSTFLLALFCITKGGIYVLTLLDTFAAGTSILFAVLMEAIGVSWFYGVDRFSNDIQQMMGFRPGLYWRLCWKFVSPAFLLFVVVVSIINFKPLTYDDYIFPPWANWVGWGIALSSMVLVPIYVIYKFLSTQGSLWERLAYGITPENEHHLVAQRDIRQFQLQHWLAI
T4 sequence (P41595 whole entry): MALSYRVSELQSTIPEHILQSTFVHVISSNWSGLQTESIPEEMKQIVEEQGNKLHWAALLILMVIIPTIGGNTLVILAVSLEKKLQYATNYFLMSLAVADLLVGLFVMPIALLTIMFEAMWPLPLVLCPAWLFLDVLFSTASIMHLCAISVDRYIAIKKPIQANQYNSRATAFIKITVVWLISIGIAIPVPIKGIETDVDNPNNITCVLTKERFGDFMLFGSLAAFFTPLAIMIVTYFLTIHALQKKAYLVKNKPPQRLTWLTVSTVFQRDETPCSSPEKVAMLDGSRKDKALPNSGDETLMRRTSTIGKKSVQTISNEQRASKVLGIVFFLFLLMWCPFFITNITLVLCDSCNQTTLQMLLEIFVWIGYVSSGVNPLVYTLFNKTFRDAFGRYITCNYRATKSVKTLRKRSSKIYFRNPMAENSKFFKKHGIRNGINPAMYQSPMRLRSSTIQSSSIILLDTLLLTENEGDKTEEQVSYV
T3 sequence (P31645 whole entry): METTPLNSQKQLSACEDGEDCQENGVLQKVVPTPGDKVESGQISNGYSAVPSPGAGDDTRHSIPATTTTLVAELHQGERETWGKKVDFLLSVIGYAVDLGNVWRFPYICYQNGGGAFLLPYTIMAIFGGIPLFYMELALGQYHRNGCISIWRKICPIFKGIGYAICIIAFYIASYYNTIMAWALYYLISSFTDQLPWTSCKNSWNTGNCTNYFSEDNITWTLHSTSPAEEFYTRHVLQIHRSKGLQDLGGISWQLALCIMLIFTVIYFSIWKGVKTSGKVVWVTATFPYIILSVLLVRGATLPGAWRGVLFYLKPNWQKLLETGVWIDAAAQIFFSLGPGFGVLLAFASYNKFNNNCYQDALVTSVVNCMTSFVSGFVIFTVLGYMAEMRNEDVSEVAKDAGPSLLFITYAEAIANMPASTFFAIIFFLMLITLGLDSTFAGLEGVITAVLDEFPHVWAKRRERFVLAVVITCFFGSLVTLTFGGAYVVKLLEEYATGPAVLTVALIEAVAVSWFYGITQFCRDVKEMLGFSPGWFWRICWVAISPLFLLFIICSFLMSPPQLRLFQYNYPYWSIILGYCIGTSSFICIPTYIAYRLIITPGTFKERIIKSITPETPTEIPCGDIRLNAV
T5 sequence (P28223 whole entry): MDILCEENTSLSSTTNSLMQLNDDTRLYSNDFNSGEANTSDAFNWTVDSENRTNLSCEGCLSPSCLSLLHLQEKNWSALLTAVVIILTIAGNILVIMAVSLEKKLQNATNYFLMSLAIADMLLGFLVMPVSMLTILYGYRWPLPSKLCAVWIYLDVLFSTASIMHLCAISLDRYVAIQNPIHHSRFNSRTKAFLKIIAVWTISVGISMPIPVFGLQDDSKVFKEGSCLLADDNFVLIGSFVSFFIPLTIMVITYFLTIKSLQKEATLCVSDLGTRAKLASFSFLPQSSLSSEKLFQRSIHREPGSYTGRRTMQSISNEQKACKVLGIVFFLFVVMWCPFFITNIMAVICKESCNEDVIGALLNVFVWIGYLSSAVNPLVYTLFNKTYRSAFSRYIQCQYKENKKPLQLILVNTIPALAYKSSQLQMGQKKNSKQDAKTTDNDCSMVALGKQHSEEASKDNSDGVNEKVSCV
T2 sequence (Q01959 whole entry): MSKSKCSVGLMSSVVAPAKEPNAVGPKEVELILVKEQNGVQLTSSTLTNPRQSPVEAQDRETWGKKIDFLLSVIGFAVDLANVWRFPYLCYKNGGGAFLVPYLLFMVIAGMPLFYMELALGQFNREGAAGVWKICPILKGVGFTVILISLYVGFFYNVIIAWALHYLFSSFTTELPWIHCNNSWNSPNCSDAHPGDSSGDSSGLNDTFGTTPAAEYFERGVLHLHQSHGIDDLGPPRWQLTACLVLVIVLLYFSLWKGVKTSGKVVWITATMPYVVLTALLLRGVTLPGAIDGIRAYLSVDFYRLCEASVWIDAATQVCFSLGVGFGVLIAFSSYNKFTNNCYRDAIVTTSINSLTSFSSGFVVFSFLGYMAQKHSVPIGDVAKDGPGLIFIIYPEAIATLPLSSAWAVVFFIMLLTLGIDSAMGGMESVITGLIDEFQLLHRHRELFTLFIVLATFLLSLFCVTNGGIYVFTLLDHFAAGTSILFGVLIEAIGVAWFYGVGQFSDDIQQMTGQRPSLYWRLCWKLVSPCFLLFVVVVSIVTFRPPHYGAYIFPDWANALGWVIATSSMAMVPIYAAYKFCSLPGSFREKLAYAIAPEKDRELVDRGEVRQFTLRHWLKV

Regarding `CNC(C)Cc1ccc2c(c1)SCO2` (centres unmarked) [SDMA, 1-(1,3-benzoxathiol-5-yl)-N-methylpropan-2-amine], the EC50 on 5-HT2C came out at 656 nM; on 5-HT2B, 357 nM; on 5-HT2A (read-out: EC50 5-HT2A), 1400 nM; at SERT [5] it was 180 nM; on NET [7], 360 nM. Further, the maximum response (Emax) at 5-HT2C is 79 ± 5.3%; at DAT [2] it was 35.4%; at 5-HT2B, 70 ± 3.4%; at 5-HT2A (HEK-293T, read-out: Emax ± SEM, %5-HT response 5-HT2A, Gq dissociation BRET, relative to 5-HT), under 70%; at SERT [5], 71.5%; at NET [7], 104%. Moreover, the “DAT/SERT ratio (IC50)” value at DAT [1] is 2.15. In addition, the IC50 on SERT [3] is 4000 ± 870 nM; on NET [6], 770 ± 390 nM; in series [8], 4390 ± 2840 nM. The “Emax ± SEM, %5-HT response 5-HT2A” value on 5-HT2A was 68.2 ± 1.8%. Also, the “type of releaser at DAT” value on DAT [4] was “partial releasers”. The “DAT/SERT ratio (EC50)” value at DAT [4] amounted to 0.37. The “type of releaser at SERT” value on SERT [5] is on record as “partial releasers”. Also, the “type of releaser at NET” value on NET [7] is on record as “full releasers”.
On to `CC(N)Cc1ccc2c(c1)SCO2` (centres unmarked) [SDA, 1-(1,3-benzoxathiol-5-yl)propan-2-amine], for which the EC50 at 5-HT2C is 48.1 nM; on 5-HT2B, 41.5 nM; at 5-HT2A (read-out: EC50 5-HT2A), 340 nM; on 5-HT2A (read-out: pEC50 ± SEM 5-HT2A (converted)), 302 nM; on SERT [5], 270 nM; at NET [7], 150 nM. For the same compound, the Emax on 5-HT2C turned out to be 92.9 ± 4.9%; on DAT [2], 55.4%; on 5-HT2B it was 88.2 ± 3.7%; on SERT [5], 70.5%; on NET [7] it was 99.6%. Moreover, the “DAT/SERT ratio (IC50)” value on DAT [1] stood at 2.42. In addition, the IC50 was 3090 ± 680 nM against SERT [3], 850 ± 240 nM on NET [6] and 3650 ± 270 nM in series [8]. For the same compound, the “time spent in the center of the arena (thigmotaxis)” value in the series with male Swiss CD-1 mice is “significantly decreased the time spent in the center of the arena”. Moreover, at 5-HT2A, the “Emax ± SEM, %5-HT response 5-HT2A” value amounted to 92.4 ± 2.0%. The “type of releaser at DAT” value on DAT [4] is on record as “partial releasers”. Besides, the “DAT/SERT ratio (EC50)” value on DAT [4] is reported as 0.66. The “type of releaser at SERT” value on SERT [5] was “partial releasers”. The “type of releaser at NET” value at NET [7] is “full releasers”.
